Data as given in patent US9745321B2, “Fused pyrimidine compound, intermediate, preparation method therefor, and composition and application thereof” (SHANGHAI YINGLI PHARMACEUTICAL CO., LTD, priority 2013, dated 2017).

How the values were obtained:
PI3Kδ = PI3Kδ (Homo sapiens (Human), UniProt O00329); assay: PI3Kδ enzyme activity inhibition IC50 evaluation assay; type: biochemical; conditions: luminescence, 25 μM ATP, 50 μM PIP2, 2 hrs room temperature
Method: (§1) PI3Kα, PI3Kδ, PI3Kβ and PI3Kγ Enzyme Activity Inhibition IC50 Evaluation Assay
• 1. Buffer preparation: 50 mM HEPES, pH 7.5, 3 mM MgCl2, 1 mM EGTA, 100 mM NaCl, 0.03% CHAPS. • 2. Compound was formulated in 100% DMSO in a concentration gradient, and added to a 384-well plate to a final DMSO concentration of 1%. • 3. PI3Kα, PI3Kδ, PI3Kβ and PI3Kγ enzymes were diluted to an optimum concentration with the following buffer: 50 mM HEPES, pH 7.5, 3 mM MgCl2, 1 mM EGTA, 100 mM NaCl, 0.03% CHAPS, 2 mM DTT, and transferred to a 384-well plate and incubated with the compound for a certain time. • 4. […] For PI3Kβ and PI3Kγ, it was still necessary to further add 10 μL ADP-Glo Detection Reagent, and then equilibrated at room temperature for 30 minutes. • 5. Read Luminescense with FlexStation, and calculate the inhibition rate as the average of two tests.

PI3Kα = PI3Kα (Homo sapiens (Human), UniProt P42336); assay: PI3Kα enzyme activity inhibition IC50 evaluation assay; type: biochemical; conditions: ratio PI3Kα vs PI3Kδ
Sequence of PI3Kα (P42336 whole entry): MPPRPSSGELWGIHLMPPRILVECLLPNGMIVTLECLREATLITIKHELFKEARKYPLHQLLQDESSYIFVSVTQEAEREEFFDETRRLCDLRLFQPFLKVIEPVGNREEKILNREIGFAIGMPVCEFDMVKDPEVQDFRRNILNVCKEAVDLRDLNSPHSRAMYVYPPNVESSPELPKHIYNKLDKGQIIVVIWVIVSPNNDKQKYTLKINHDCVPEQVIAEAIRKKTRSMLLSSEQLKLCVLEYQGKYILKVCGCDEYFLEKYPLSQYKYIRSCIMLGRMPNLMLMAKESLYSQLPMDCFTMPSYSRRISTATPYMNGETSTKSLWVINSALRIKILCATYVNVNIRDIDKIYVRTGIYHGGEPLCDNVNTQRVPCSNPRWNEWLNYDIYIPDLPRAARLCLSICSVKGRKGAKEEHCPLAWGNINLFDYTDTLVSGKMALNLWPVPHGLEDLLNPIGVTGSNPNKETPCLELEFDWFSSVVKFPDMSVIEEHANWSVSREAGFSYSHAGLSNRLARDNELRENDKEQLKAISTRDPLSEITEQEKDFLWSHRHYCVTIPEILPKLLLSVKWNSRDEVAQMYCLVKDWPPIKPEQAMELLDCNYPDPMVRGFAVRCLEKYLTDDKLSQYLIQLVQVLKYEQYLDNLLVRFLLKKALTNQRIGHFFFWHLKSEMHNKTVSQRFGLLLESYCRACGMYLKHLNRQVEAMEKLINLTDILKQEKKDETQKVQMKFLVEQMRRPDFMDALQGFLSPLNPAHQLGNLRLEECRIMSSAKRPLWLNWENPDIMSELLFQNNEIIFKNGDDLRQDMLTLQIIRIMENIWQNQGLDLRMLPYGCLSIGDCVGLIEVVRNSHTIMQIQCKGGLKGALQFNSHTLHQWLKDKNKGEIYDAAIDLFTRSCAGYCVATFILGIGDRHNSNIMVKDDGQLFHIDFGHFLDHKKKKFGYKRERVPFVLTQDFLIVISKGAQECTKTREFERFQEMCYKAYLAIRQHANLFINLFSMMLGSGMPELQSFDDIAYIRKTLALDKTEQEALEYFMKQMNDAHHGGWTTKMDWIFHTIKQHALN
Sequence of PI3Kα (P27986 whole entry partner): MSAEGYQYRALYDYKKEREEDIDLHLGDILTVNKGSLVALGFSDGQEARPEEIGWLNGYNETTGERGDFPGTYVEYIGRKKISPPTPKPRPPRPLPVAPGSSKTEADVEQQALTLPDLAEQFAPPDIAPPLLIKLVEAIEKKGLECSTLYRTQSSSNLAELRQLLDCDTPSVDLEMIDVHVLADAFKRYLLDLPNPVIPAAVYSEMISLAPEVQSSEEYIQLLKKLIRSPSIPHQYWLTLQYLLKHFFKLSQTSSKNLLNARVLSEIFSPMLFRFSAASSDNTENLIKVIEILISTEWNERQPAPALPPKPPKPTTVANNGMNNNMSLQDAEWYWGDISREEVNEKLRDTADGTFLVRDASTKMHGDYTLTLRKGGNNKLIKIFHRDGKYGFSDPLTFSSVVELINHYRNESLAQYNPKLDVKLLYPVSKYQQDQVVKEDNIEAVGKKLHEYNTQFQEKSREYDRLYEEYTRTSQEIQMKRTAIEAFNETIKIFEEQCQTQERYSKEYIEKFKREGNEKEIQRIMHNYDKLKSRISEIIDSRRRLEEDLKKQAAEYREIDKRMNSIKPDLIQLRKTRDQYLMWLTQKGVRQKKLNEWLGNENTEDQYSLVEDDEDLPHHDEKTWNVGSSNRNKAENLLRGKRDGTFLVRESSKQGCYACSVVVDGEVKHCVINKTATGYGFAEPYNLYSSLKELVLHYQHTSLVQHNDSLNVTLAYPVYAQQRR
Method: as §1
• 1. Buffer preparation: 50 mM HEPES, pH 7.5, 3 mM MgCl2, 1 mM EGTA, 100 mM NaCl, 0.03% CHAPS. • 2. Compound was formulated in 100% DMSO in a concentration gradient, and added to a 384-well plate to a final DMSO concentration of 1%. • 3. PI3Kα, PI3Kδ, PI3Kβ and PI3Kγ enzymes were diluted to an optimum concentration with the following buffer: 50 mM HEPES, pH 7.5, 3 mM MgCl2, 1 mM EGTA, 100 mM NaCl, 0.03% CHAPS, 2 mM DTT, and transferred to a 384-well plate and incubated with the compound for a certain time. • 4. Substrate was diluted to an optimum concentration with the following buffer: 50 mM HEPES, pH 7.5, 3 mM MgCl2, 1 mM EGTA, 100 mM NaCl, 0.03% CHAPS, 2 mM DTT, 50 μM PIP2, 25 μM ATP; then added to a 384-well plate to initiate the reaction, and for PI3Kα, PI3Kβ and PI3Kγ at room temperature reacted for 1 hr, for PI3Kδ at room temperature reacted for 2 hrs. For PI3Kβ and PI3Kγ, it was still necessary to further add 10 μL ADP-Glo Detection Reagent, and then equilibrated at room temperature for 30 minutes. • 5. Read Luminescense with FlexStation, and calculate the inhibition rate as the average of two tests.

Sequence of PI3Kδ (O00329 whole entry): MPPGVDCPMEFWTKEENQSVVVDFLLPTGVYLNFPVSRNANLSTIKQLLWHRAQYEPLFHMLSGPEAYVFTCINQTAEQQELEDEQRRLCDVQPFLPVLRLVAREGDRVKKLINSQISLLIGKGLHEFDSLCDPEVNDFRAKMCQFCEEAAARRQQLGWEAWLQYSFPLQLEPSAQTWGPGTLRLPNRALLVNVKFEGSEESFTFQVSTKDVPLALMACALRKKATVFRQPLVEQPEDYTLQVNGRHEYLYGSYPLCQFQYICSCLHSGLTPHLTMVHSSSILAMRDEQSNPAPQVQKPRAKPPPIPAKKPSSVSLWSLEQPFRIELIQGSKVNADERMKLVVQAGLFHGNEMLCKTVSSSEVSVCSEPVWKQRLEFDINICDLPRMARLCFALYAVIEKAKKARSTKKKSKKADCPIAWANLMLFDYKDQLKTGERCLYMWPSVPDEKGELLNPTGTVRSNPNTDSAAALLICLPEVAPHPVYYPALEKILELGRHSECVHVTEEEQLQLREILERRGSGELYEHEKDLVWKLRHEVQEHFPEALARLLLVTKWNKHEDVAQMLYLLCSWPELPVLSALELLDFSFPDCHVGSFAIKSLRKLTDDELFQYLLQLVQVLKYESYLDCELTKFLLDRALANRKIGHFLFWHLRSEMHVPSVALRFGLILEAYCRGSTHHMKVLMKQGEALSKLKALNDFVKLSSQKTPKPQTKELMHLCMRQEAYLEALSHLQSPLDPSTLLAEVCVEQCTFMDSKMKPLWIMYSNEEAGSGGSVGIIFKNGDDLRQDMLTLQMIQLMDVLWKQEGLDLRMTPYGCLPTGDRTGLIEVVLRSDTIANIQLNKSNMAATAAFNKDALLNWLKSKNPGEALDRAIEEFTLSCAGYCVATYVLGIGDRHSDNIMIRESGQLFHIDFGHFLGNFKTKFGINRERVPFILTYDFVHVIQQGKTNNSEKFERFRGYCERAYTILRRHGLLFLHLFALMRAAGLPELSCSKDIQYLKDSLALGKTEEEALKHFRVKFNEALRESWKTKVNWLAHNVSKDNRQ
Sequence of PI3Kδ (P27986 whole entry partner): as the sequence (P27986 whole entry partner) above

Structure (SMILES) | IC50 (PI3Kδ) [nM] | α/δ selectivity (PI3Kα)
CS(=O)(=O)N1CCN(Cc2csc3c(-c4c(F)ccc5[nH]ccc45)nc(N4CCOCC4)nc23)CC1 [Compound 1] | 105 | 12
Cc1cc2c(-c3nc(N4CCOCC4)nc4c(CN5CCC(C(C)(C)O)CC5)csc34)cccc2[nH]1 [Compound 6] | 145 | >69
c1cc(-c2nc(N3CCOCC3)nc3c(CN4CCC(N5CCOCC5)CC4)csc23)c2cc[nH]c2c1 [Compound 9] | 50 | >200
O=C(CO)N1CCN(Cc2csc3c(-c4cccc5[nH]ccc45)nc(N4CCOCC4)nc23)CC1 [Compound 12] | 17 | 133
CC(C)(O)CN1CCN(Cc2csc3c(-c4cccc5[nH]ccc45)nc(N4CCOCC4)nc23)CC1 [Compound 13] | 52 | >192
CC(C)(C)N1CCN(Cc2csc3c(-c4cccc5[nH]ccc45)nc(N4CCOCC4)nc23)CC1 [Compound 15] | 34 | >294
Cc1oc2ccccc2c1-c1nc(N2CCOCC2)nc2c(CN3CCN(C(=O)C(C)C)CC3)csc12 [Compound 16] | 567 | 18
CC(C)(O)C1CCN(Cc2csc3c(-c4ccnc5[nH]ccc45)nc(N4CCOCC4)nc23)CC1 [Compound 17] | 53 | 74
CCC(=O)N1CCN(Cc2csc3c(-c4cnn(C)c4)nc(N4CCOCC4)nc23)CC1 [Compound 18] | 86 | 58
CC(C)C(=O)N1CCN(Cc2csc3c(-c4cnn(C)c4)nc(N4CCOCC4)nc23)CC1 [Compound 19] | 87 | 49
Cc1cn(-c2nc(N3CCOCC3)nc3c(CN4CCN(C(=O)C(C)C)CC4)csc23)c(C)n1 [Compound 20] | 66 | 54
Cc1nn(C)c(C)c1-c1nc(N2CCOCC2)nc2c(CN3CCN(C(=O)C(C)C)CC3)csc12 [Compound 21] | 150 | 19
Cc1nc(Cl)cn1-c1nc(N2CCOCC2)nc2c(CN3CCN(C(=O)C(C)C)CC3)csc12 [Compound 23] | 27 | 40
COc1ncc(-c2nc(N3CCOCC3)nc3c(CN4C[C@@H](C)O[C@@H](C)C4)csc23)cc1NS(C)(=O)=O [Compound 27] | 99 | 10
COc1ncc(-c2nc(N3CCOCC3)nc3c(CN4CCN(C(=O)OC(C)(C)C)CC4)csc23)cc1NS(C)(=O)=O [Compound 28] | 35 | 56
CC(C)C(=O)N1CCN(Cc2csc3c(-n4ccnc4C(F)(F)F)nc(N4CCOCC4)nc23)CC1 [Compound 30] | 71 | 36
Cc1cn(-c2nc(N3CCOCC3)nc3c(CN4CCN(C(=O)C5CC5)CC4)csc23)c(C)n1 [Compound 37] | 28.9 | 38
COc1ncc(-c2nc(N3CCOCC3)nc3ccoc23)cc1NS(C)(=O)=O [Compound 38] | 108 | 3
COc1ncc(-c2nc(N3CCOCC3)nc3c(CN4CCN(C(=O)C5CCCCC5)CC4)csc23)cc1NS(C)(=O)=O [Compound 40] | 17 | 41
COc1ncc(-c2nc(N3CCOCC3)nc3c(CN4CCC(N(C)C)CC4)csc23)cc1NS(C)(=O)=O [Compound 43] | 4 | 105
COc1ncc(-c2nc(N3CCOCC3)nc3c(CN4CCC(C(C)(C)O)CC4)csc23)cc1NS(=O)(=O)C1CC1 [Compound 50] | 13 | 359
COc1ncc(-c2nc(N3CCOCC3)nc3c(CN4CCN(C)CC4)csc23)cc1NS(C)(=O)=O [Compound 51] | 11 | 103
COc1ncc(-c2nc(N3CCOCC3)nc3c(CN4CCC(N(C)C(=O)OC(C)(C)C)CC4)csc23)cc1NS(C)(=O)=O [Compound 52] | 36 | 252
COc1ncc(-c2nc(N3CCOCC3)nc3c(CN4CC(C(C)(C)O)C4)csc23)cc1NS(C)(=O)=O [Compound 53] | 19 | 110
COc1ncc(-c2nc(N3CCOCC3)nc3c(CN4CCC(N(C)C(C)C)CC4)csc23)cc1NS(C)(=O)=O [Compound 58] | 5.4 | 150

Continued by falling IC50 (PI3Kδ), values first:

IC50 (PI3Kδ) [nM] | α/δ selectivity (PI3Kα) | Structure (SMILES)
13 | 23 | COc1ncc(-c2nc(N3CCOCC3)nc3c(CN4CCOCC4)csc23)cc1NS(C)(=O)=O [Compound 36]
13 | 152 | COc1ncc(-c2nc(N3CCOCC3)nc3c(CN4CCC(C(=O)NCC(F)(F)F)CC4)csc23)cc1NS(C)(=O)=O [Compound 42]
12 | 27 | COc1ncc(-c2nc(N3CCOCC3)nc3c(CN4CCN(C(=O)NCC(F)(F)F)CC4)csc23)cc1NS(C)(=O)=O [Compound 63]
11.4 | 323 | COc1ncc(-c2nc(N3CCOCC3)nc3c(CN4CCC(C(C)(C)O)CC4)csc23)cc1NS(=O)(=O)c1ccccc1 [Compound 41]
9.2 | 159 | COc1ncc(-c2nc(N3CCOCC3)nc3c(CN4CCN(C5CCN(C)CC5)CC4)csc23)cc1NS(C)(=O)=O [Compound 39]
9.1 | 110 | COc1ncc(-c2nc(N3CCOCC3)nc3c(CN4CCN(CC(F)(F)F)CC4)csc23)cc1NS(C)(=O)=O [Compound 64]
7.6 | 293 | CCN(C)C1CCN(Cc2csc3c(-c4cnc(OC)c(NS(C)(=O)=O)c4)nc(N4CCOCC4)nc23)CC1 [Compound 56]
6.9 | 34 | COc1ncc(-c2nc(N3CCOCC3)nc3c(CN4CCN(C5COC5)CC4)csc23)cc1NS(C)(=O)=O [Compound 29]
6.9 | 52 | COc1ncc(-c2nc(N3CCOCC3)nc3c(CN4CC5CC4CN5C4COC4)csc23)cc1NS(C)(=O)=O (stereo not shown) [Compound 48]
6.1 | 23 | COc1ncc(-c2nc(N3CCOCC3)nc3c(CN4CCN(C(=O)C(C)(C)C)CC4)csc23)cc1NS(C)(=O)=O [Compound 46]
5.7 | 15 | COc1ncc(-c2nc(N3CCOCC3)nc3c(CN4CCN(C(=O)N5CCCC5)CC4)csc23)cc1NS(C)(=O)=O [Compound 49]
5.6 | 224 | COc1ncc(-c2nc(N3CCOCC3)nc3c(CN4CCC(N5C[C@@H](C)O[C@@H](C)C5)CC4)csc23)cc1NS(C)(=O)=O [Compound 55]
5.6 | 104 | COc1ncc(-c2nc(N3CCOCC3)nc3c(CN4CCN(C(=O)C(F)(F)F)CC4)csc23)cc1NS(C)(=O)=O [Compound 62]
4.9 | 10 | CC(C)C(=O)N1CCN(Cc2csc3c(-c4cncc(NS(C)(=O)=O)c4)nc(N4CCOCC4)nc23)CC1 [Compound 31]
4.7 | 12 | COc1ncc(-c2nc(N3CCOCC3)nc3c(CN4CCN(S(C)(=O)=O)CC4)c(C)sc23)cc1NS(C)(=O)=O [Compound 61]
4.3 | 15 | COc1ncc(-c2nc(N3CCOCC3)nc3c(CN4CCN(C(C)=O)CC4)csc23)cc1NS(C)(=O)=O [Compound 32]
4.2 | 51 | COc1ncc(-c2nc(N3CCOCC3)nc3c(CN4CCN(C5CCOCC5)CC4)csc23)cc1NS(C)(=O)=O [Compound 33]
3.6 | 195 | COc1ncc(-c2nc(N3CCOCC3)nc3c(CN4CCN(C(C)(C)C)CC4)csc23)cc1NS(=O)(=O)C1CC1 [Compound 67]
3.5 | 9 | COc1ncc(-c2nc(N3CCOCC3)nc3c(CN4CCN(C(=O)C(C)C)CC4)csc23)cc1NS(C)(=O)=O [Compound 47]
3.4 | 44 | COc1ncc(-c2nc(N3CCOCC3)nc3c(CN4CCN(C(C)(C)C)CC4)csc23)cc1NS(C)(=O)=O [Compound 34]
2.8 | 103 | COc1ncc(-c2nc(N3CCOCC3)nc3c(CN4CCN(C(C)(C)C(N)=O)CC4)csc23)cc1NS(C)(=O)=O [Compound 57]
2.7 | 108 | COc1ncc(-c2nc(N3CCOCC3)nc3c(CN4CCC(C(C)(C)OC)CC4)csc23)cc1NS(C)(=O)=O [Compound 54]
